# According to patent publication US11787780B2 (CORCEPT THERAPEUTICS INCORPORATED, priority 2020, dated 2023):
# pIC50, pKi: −log10 of the molar value.
# Legend:
# [1] = biological target: glucocorticoid receptor (GR) recombinant ligand binding domain (LBD) (Homo sapiens (Human), UniProt P04150); assay: GR binding fluorescence polarisation (FP) assay; settings: displacement of fluorescently tagged ligand
# Procedure: Binding of test compounds to the glucocorticoid receptor (GR) is determined using a fluorescence polarisation (FP) assay utilising a recombinant ligand binding domain (LBD) of GR. The test compounds are assessed by their ability to displace a fluorescently tagged ligand and detection of the resulting decrease in fluorescence polarisation.
# [2] = system: induction of TAT by dexamethasone in HepG2 cells; assay: Hep G2 TAT assay (inhibition of dexamethasone-induced TAT); format: cell-based, human; settings: challenge of 100 nM dexamethasone, IC50 converted to Ki by Cheng and Prusoff equation
# Procedure: Glucocorticoid mediated activation of TAT occurs by transactivation of glucocorticoid response elements in the TAT promoter by glucocorticoid receptor-agonist complex. The following protocol describes an assay for measuring induction of TAT by dexamethasone in HepG2 cells (a human liver hepatocellular carcinoma cell line; ECACC, UK).
# TAT activity was measured as outlined in the literature by A. Ah et al., J. Med. Chem., 2004, 47, 2441-2452.
# HepG2 cells were cultured using MEME media supplemented with 10% (v/v) foetal bovine serum; 2 mM L-glutamine and 1% (v/v) NEAA at 37° C., 5%/95% (v/v) CO2/air. The HepG2 cells were counted and adjusted to yield a density of 0.125×10^6 cells/ml in RPMI 1640 without phenol red, 10% (v/v) charcoal stripped FBS, 2 mM L-glutamine and seeded at 25,000 cells/well in 200 μl into 96 well, sterile, tissue culture micro titre plates, and incubated at 37° C., 5% CO2 for 24 hours
# Growth media was removed and replaced with assay media {RPMI 1640 without phenol red, 2 mM L-glutamine+10 μM forskolin}. Test compounds were screened against a challenge of 100 nM dexamethasone. Compounds were serially half log diluted in 100% (v/v) dimethylsulphoxide from a 10 mM stock.
# Test compounds were pre-incubated with cells in micro-titre plates for 30 minutes at 37° C., 5/95 (v/v) CO2/air, before the addition of 100 nM dexamethasone and then subsequently for 20 hours to allow optimal TAT induction.
# HepG2 cells were then lysed with 30 μl of cell lysis buffer containing a protease inhibitor cocktail for 15 minutes at 4° C. […] After 2 hours incubation at 37° C. the reaction was terminated by the addition of 15 μl of 10M aqueous potassium hydroxide solution, and the plates incubated for a further 30 minutes at 37° C. The TAT activity product was measured by absorbance at λ 340 nm.
# [compound] and fitting the data to a 4 parameter logistic equation. IC50 values were converted to Ki (equilibrium dissociation constant) using the Cheng and Prusoff equation, assuming the antagonists were competitive inhibitors with respect to dexamethasone.
# Chain of glucocorticoid receptor (GR) recombinant ligand binding domain (LBD) (P04150 524-758): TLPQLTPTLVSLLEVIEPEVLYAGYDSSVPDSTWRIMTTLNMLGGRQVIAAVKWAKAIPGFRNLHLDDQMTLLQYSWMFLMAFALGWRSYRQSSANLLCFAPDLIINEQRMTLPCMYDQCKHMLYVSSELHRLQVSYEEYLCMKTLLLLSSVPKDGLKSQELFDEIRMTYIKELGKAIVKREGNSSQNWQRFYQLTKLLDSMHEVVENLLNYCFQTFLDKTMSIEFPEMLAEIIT
SMILES,pIC50 [1],pKi [2]
"CCCn1cc(S(=O)(=O)N2CCC(c3cc4cnn(-c5ccc(F)cc5)c4cc3C)CC2)cn1 [Example 6, 1-(4-fluorophenyl)-6-methyl-5-(1-((1-propyl-1H-pyrazol-4-yl)sulfonyl)piperidin-4-yl)-1H-indazole]",6.83,6.93
"CCCn1cc(S(=O)(=O)N2CCC(c3ccc4c(cnn4-c4ccc(F)cc4)c3)C[C@H]2C)cn1 (stereo partly drawn) [Example 8, 1-(4-fluorophenyl)-5-((2R)-2-methyl-1-((1-propyl-1H-pyrazol-4-yl)sulfonyl)piperidin-4-yl)-1H-indazole]",6.67,6.62
"CCCn1cc(S(=O)(=O)N2CC[C@@](Cc3ccccc3)(c3cc4cnn(-c5ccc(F)cc5)c4cc3C)C2)cn1 [Example 17, (S)-5-(3-benzyl-1-((1-propyl-1H-pyrazol-4-yl)sulfonyl)pyrrolidin-3-yl)-1-(4-fluorophenyl)-6-methyl-1H-indazole]",7.28,7.64
"CCCn1cc(S(=O)(=O)N2CCC(COC)(c3cc4cnn(-c5ccc(F)cc5)c4cc3C)CC2)cn1 [Example 24, 1-(4-fluorophenyl)-5-(4-(methoxymethyl)-1-((1-propyl-1H-pyrazol-4-yl)sulfonyl)piperidin-4-yl)-6-methyl-1H-indazole]",7.08,5.82
"CCCn1cc(S(=O)(=O)N2CCC(Cc3ccccc3)(c3cc4cnn(-c5ccc(F)cc5)c4cc3C)CC2)cn1 [Example 25, 5-(4-benzyl-1-((1-propyl-1H-pyrazol-4-yl)sulfonyl)piperidin-4-yl)-1-(4-fluorophenyl)-6-methyl-1H-indazole]",7.17,7.54
"CNS(=O)(=O)C1CCN(c2cc3cnn(-c4ccc(F)cc4)c3cc2C)C1 (centres unmarked) [Example 28, 1-(1-(4-fluorophenyl)-6-methyl-1H-indazol-5-yl)-N-methylpyrrolidine-3-sulfonamide]",6.94,5.97
"Cc1cc2c(cnn2-c2ccc(F)cc2)cc1C1CCN(C(=O)NC(C)C)CC1 [Example 32, 4-(1-(4-fluorophenyl)-6-methyl-1H-indazol-5-yl)-N-isopropylpiperidine-1-carboxamide]",7.15,6.40
Cc1cc2c(cnn2-c2ccc(F)cc2)cc1N1CCN(S(=O)(=O)c2cnn(C)c2)C2(CC2)C1 [Example 59],7.72,6.61
CCCn1cc(S(=O)(=O)N2CCN(c3cc4cnn(-c5ccc(F)cc5)c4cc3C)CC23CC3)cn1 [Example 60],8.10,7.41
Cc1cc2c(cnn2-c2ccc(F)cc2)cc1N1CCN(S(=O)(=O)c2cnn(CC(F)(F)F)c2)C2(CC2)C1 [Example 67],7.74,7.48
"CCn1cc(S(=O)(=O)N2CCC(Cc3ccccc3)(c3cc4cnn(-c5ccc(=O)n(C)c5)c4cc3C)C2)nn1 (centres unmarked) [Example 291, 5-(5-(3-benzyl-1-((1-ethyl-1H-1,2,3-triazol-4-yl)sulfonyl)pyrrolidin-3-yl)-6-methyl-1H-indazol-1-yl)-1-methylpyridin-2(1H)-one]",,6.96
"Cc1cc2c(cnn2-c2ccc(=O)n(C)c2)cc1C1(Cc2ccccc2)CCN(S(=O)(=O)c2cnn(CC(C)C)c2)C1 (centres unmarked) [Example 319, 5-(5-(3-benzyl-1-((1-isobutyl-1H-pyrazol-4-yl)sulfonyl)pyrrolidin-3-yl)-6-methyl-1H-indazol-1-yl)-1-methylpyridin-2(1H)-one]",,7.34
"CCc1cc2c(cnn2-c2ccc(=O)n(C)c2)cc1C1(Cc2ccccc2)CCN(S(=O)(=O)c2cnn(C)n2)C1 (centres unmarked) [Example 333, 5-(5-(3-benzyl-1-((2-methyl-2H-1,2,3-triazol-4-yl)sulfonyl)pyrrolidin-3-yl)-6-ethyl-1H-indazol-1-yl)-1-methylpyridin-2(1H)-one]",,7.39
"Cn1ncc(S(=O)(=O)N2CCC(Cc3ccccc3)(c3cc4cnn(-c5ccc(F)cc5)c4cc3C#N)C2)n1 (centres unmarked) [Example 334, 5-(3-benzyl-1-((2-methyl-2H-1,2,3-triazol-4-yl)sulfonyl)pyrrolidin-3-yl)-1-(4-fluorophenyl)-1H-indazole-6-carbonitrile]",,7.28
"Cc1cc2c(cnn2-c2ccc(F)cc2)cc1C1(/C=C/c2ccccc2)CCN(S(=O)(=O)c2cnn(C)c2)C1 (centres unmarked) [Example 342, (E)-1-(4-fluorophenyl)-6-methyl-5-(1-((1-methyl-1H-pyrazol-4-yl)sulfonyl)-3-styrylpyrrolidin-3-yl)-1H-indazole]",,6.96
"Cc1cc2c(cnn2-c2ccc(F)cc2)cc1C1(CCc2ccccc2)CCN(S(=O)(=O)c2cnn(C)c2)C1 (centres unmarked) [Example 343, 1-(4-fluorophenyl)-6-methyl-5-(1-((1-methyl-1H-pyrazol-4-yl)sulfonyl)-3-phenethylpyrrolidin-3-yl)-1H-indazole]",,6.92
"Cc1cc2c(cnn2-c2ccc(F)cc2)cc1C1(COc2ccccc2)CCN(S(=O)(=O)c2cnn(C)c2)C1 (centres unmarked) [Example 344, 1-(4-fluorophenyl)-6-methyl-5-(1-((1-methyl-1H-pyrazol-4-yl)sulfonyl)-3-(phenoxymethyl)pyrrolidin-3-yl)-1H-indazole]",,7.01
"Cc1cc2c(cnn2-c2ccc(F)cc2)cc1C1(C(=O)c2ccccc2)CCN(S(=O)(=O)c2cnn(C)c2)C1 (centres unmarked) [Example 345, (3-(1-(4-fluorophenyl)-6-methyl-1H-indazol-5-yl)-1-((1-methyl-1H-pyrazol-4-yl)sulfonyl)pyrrolidin-3-yl)(phenyl)methanone]",,6.66
"Cc1cc2c(cnn2-c2ccc(F)cc2)cc1C1(CCCc2ccccc2)CCN(S(=O)(=O)c2cnn(C)c2)C1 (centres unmarked) [Example 346, 1-(4-fluorophenyl)-6-methyl-5-(1-((1-methyl-1H-pyrazol-4-yl)sulfonyl)-3-(3-phenylpropyl)pyrrolidin-3-yl)-1H-indazole]",,6.85

# Continued by rising pIC50 [1], values first:
pIC50 [1],SMILES,pKi [2]
6.03,"C[C@@H]1CN(S(=O)(=O)c2cnn(C)c2)CCN1c1ccc2c(cnn2-c2ccc(F)cc2)c1 [Example 1, (R)-1-(4-fluorophenyl)-5-(2-methyl-4-((1-methyl-1H-pyrazol-4-yl)sulfonyl)piperazin-1-yl)-1H-indazole]",6.23
6.48,C[C@@H]1CN(c2ccc3c(cnn3-c3ccc(F)cc3)c2)CCN1S(=O)(=O)c1ccnn1C [Example 65],5.83
6.67,"CCCn1cc(S(=O)(=O)N2CC[C@H](c3ccc4c(cnn4-c4ccc(F)cc4)c3)C[C@H]2C)cn1 [Example 10, 1-(4-fluorophenyl)-5-((2R,4S)-2-methyl-1-((1-propyl-1H-pyrazol-4-yl)sulfonyl)piperidin-4-yl)-1H-indazole]",6.62
7.02,Cc1cc2c(cnn2-c2ccc(F)cc2)cc1N1CCN(S(=O)(=O)c2cnn(CC3CC3)c2)[C@H](C)C1 [Example 43],6.33
7.09,C[C@@H]1CN(c2ccc3c(cnn3-c3ccc(F)cc3)c2)CCN1S(=O)(=O)c1cnn(CC2CC2)c1 [Example 39],6.62
7.49,Cc1cc2c(cnn2-c2ccc(F)cc2)cc1N1CCN(S(C)(=O)=O)C2(CC2)C1 [Example 58],6.49
7.57,CCCn1cc(S(=O)(=O)N2CCN(c3ccc4c(cnn4-c4ccc(F)cc4)c3)CC23CC3)cn1 [Example 50],6.32
7.60,CCCn1cc(S(=O)(=O)N2C[C@H](C)N(c3ccc4c(cnn4-c4ccc(F)cc4)c3)C[C@@H]2C)cn1 [Example 61],6.69
7.62,"CCCn1cc(S(=O)(=O)N2CC[C@](Cc3ccccc3)(c3cc4cnn(-c5ccc(F)cc5)c4cc3C)C2)cn1 [Example 18, (R)-5-(3-benzyl-1-((1-propyl-1H-pyrazol-4-yl)sulfonyl)pyrrolidin-3-yl)-1-(4-fluorophenyl)-6-methyl-1H-indazole]",8.05
8.05,"CCCn1cc(NS(=O)(=O)C2CCN(c3cc4cnn(-c5ccc(F)cc5)c4cc3C)C2)cn1 (centres unmarked) [Example 29, 1-(1-(4-fluorophenyl)-6-methyl-1H-indazol-5-yl)-N-(1-propyl-1H-pyrazol-4-yl)pyrrolidine-3-sulfonamide]",6.68
8.10,"Cc1cc2c(cnn2-c2ccc(F)cc2)cc1C1(Cc2ccccc2)CCN(S(C)(=O)=O)C1 (centres unmarked) [Example 16, 5-(3-benzyl-1-(methylsulfonyl)pyrrolidin-3-yl)-1-(4-fluorophenyl)-6-methyl-1H-indazole]",7.49
8.10,"Cc1cc2c(cnn2-c2ccc(F)cc2)cc1C1(Cc2ccccc2)CCN(C)C1 (centres unmarked) [Example 20, 5-(3-benzyl-1-methylpyrrolidin-3-yl)-1-(4-fluorophenyl)-6-methyl-1H-indazole]",6.63
